In the Deep4Chem optical property database:
“And” between values parts separate entries of the source, which are not always exact repeats. Identical values can stand only once. Values belong to the molecule of their own block, whether it stands above or below them.

Assay: solvent given as SMILES

Structure (SMILES): Cc1cc(C)c([B-]2(c3c(C)cc(C)cc3C)[O+]=P(c3ccccc3)(c3ccccc3)c3cc(C#Cc4ccccc4)sc3-c3sc(C#Cc4ccccc4)cc32)c(C)c1
emission maximum (in C1CCOC1): 498 nm

Structure (SMILES): COc1nc(Cl)nc(Nc2ccc3c4cccc5cccc(c6cccc2c63)c54)n1
emission maximum (in C1COCCO1): 479 nm | emission maximum (in CC#N): 482 nm | emission maximum (in CCCCOCCCC): 477 nm | emission maximum (in CCOC(C)=O): 477 nm

Structure (SMILES): CC1(C)c2ccccc2N(c2ccc(-c3ccc4c(c3)c3cc(-c5ccc(N6c7ccccc7C(C)(C)c7ccccc76)cc5)ccc3c3nc(C#N)c(C#N)nc43)cc2)c2ccccc21
emission maximum (in C1COCCO1): 668.71 nm | emission maximum (in CCCCCC): 507.36 nm | emission maximum (in Cc1ccccc1): 612 nm | emission maximum (in O=P(c1ccccc1)(c1ccccc1)c1cccc(-c2cc(-n3c4ccccc4c4ccccc43)cc(-n3c4ccccc4c4ccccc43)c2)n1): 594 nm

Structure (SMILES): CC(C)(C)c1ccc2oc3nc4oc5ccc(-n6c7ccccc7c7cc(-n8c9ccccc9c9ccccc98)ccc76)cc5c4cc3c2c1
emission maximum (in ClC(Cl)Cl): 446 nm

Structure (SMILES): COc1cc2c(cc1OC)C1=C[C@H](c3ccc(Cl)cc3)C3(C(C#N)=C(C#N)N1CC2)c1cc(Br)ccc1-c1ccc(Br)cc13
emission maximum (in ClCCl): 420 nm

Structure (SMILES): COc1ccc(-c2c3nc(cc4ccc([nH]4)c(-c4ccc(OC)c(OCCCC(=O)O)c4)c4nc(cc5ccc2[nH]5)CC4)CC3)cc1OCCCC(=O)O
emission maximum (in CS(C)=O): 738 nm

Structure (SMILES): CC(C)(C)c1cc(-c2c3cccc4c5cccc6c(-c7cc(C(C)(C)C)cc(C(C)(C)C)c7)c7cccc8c9cccc2c9c(c34)c(c65)c78)cc(C(C)(C)C)c1
emission maximum (in Cc1ccccc1): 701 nm

Structure (SMILES): CCc1c(C)[nH]c(C2=[N+]3C(=Cc4c(C)cc(C)n4[B-]3(F)F)c3ccccc32)c1C
emission maximum (in C1CCOC1): 635 nm | emission maximum (in CC#N): 632 nm | emission maximum (in CCCCCC): 630 nm | emission maximum (in CO): 631 nm | emission maximum (in Cc1ccccc1): 642 nm | emission maximum (in ClCCl): 640 nm

Structure (SMILES): CCn1c2ccccc2c2cc(C#Cc3cc(C#Cc4ccc5c(c4)c4ccccc4n5CC)nc(C#N)n3)ccc21
emission maximum (in C1CCOC1): 495 nm | emission maximum (in CCOC(C)=O): 494 nm | emission maximum (in CN(C)C=O): 557 nm | emission maximum (in Cc1ccccc1): 445 nm | emission maximum (in ClCCl): 510 nm

Structure (SMILES): CCCCCCCN1C(=CC2=C([O-])C(=Cc3sc4ccccc4[n+]3CCCCCCC)C2=C(C#N)C#N)Sc2ccccc21
emission maximum (in C1COCCO1): 723 nm | emission maximum (in CCO): 711 nm | emission maximum (in CN(C)C=O): 717 nm | emission maximum (in ClC(Cl)Cl): 724 nm

Structure (SMILES): N#Cc1c(-n2c3ccccc3c3ccccc32)c(-n2c3ccccc3c3ccccc32)c(-n2c3ccccc3c3ccccc32)c(-n2c3ccccc3c3ccccc32)c1-n1c2ccccc2c2ccccc21
emission maximum (in CCCCCC): 451.82 nm | emission maximum (in CCO): 515.31 nm | emission maximum (in Cc1ccccc1): 464 nm and 470 nm | emission maximum (in ClCCl): 497.22 nm | emission maximum (in c1cc(-c2cccc(-n3c4ccccc4c4ccccc43)c2)cc(-n2c3ccccc3c3ccccc32)c1): 486 nm

Structure (SMILES): c1ccc(-c2nc(-c3ccccc3)nc(-c3ccc(-n4c5ccc(-c6ccc7oc8ccccc8c7c6)cc5c5cc(-c6ccc7oc8ccccc8c7c6)ccc54)cc3)n2)cc1
emission maximum (in CCOC(C)=O): 476 nm | emission maximum (in CN(C)C=O): 529 nm | emission maximum (in Cc1ccccc1): 437 nm

Structure (SMILES): CC(C)(C)c1ccc(-c2nc3c4ccc(-c5c6ccccc6cc6ccccc56)cc4c4cc(-c5c6ccccc6cc6ccccc56)ccc4c3n2-c2ccc(C(C)(C)C)cc2)cc1
emission maximum (in C1CCOC1): 428 nm | emission maximum (in C1COCCO1): 429 nm | emission maximum (in CC#N): 455 nm | emission maximum (in CCCCCC): 419 nm | emission maximum (in CCCCOCCCC): 424 nm | emission maximum (in CCN(CC)CC): 421 nm | emission maximum (in CCOC(C)=O): 429 nm | emission maximum (in CCOCC): 424 nm | emission maximum (in CN(C)C=O): 451 nm | emission maximum (in Cc1ccccc1): 428 nm | emission maximum (in ClC=C(Cl)Cl): 429 nm | emission maximum (in ClCCl): 442 nm

Structure (SMILES): CN(C)c1ncc2nc(C#N)n(Cc3ccccc3)c2n1
emission maximum (in C1COCCO1): 424 nm | emission maximum (in CC#N): 440 nm | emission maximum (in CO): 456 nm | emission maximum (in ClCCl): 429 nm

Structure (SMILES): CCCCCCOc1cc(/C=C/c2cc(OCCCCCC)c(/C=C/c3cc(OCCCCCC)c(/C=C4\C(=O)c5ccccc5C4=C(C#N)C#N)cc3OCCCCCC)cc2OCCCCCC)c(OCCCCCC)cc1/C=C1\C(=O)c2ccccc2C1=C(C#N)C#N
emission maximum (in ClCCl): 765 nm

Structure (SMILES): CC(C)(C)c1ccc(-c2c3cccc4c(-c5ccccc5)cc5c(-c6ccc(C(C)(C)C)cc6)c6cccc7c(-c8ccccc8)cc2c(c76)c5c43)cc1
emission maximum (in ClCCl): 465 nm

Structure (SMILES): c1ccc(-n2c3c(c4c2-c2ccccc2C42c4ccccc4-c4ccccc42)C2(c4ccccc4-c4ccccc42)c2ccccc2-3)cc1
emission maximum (in C1CCOC1): 408 nm

Structure (SMILES): CC(C)(C)c1ccc2oc3nc4oc5ccc(N6c7ccccc7Sc7ccccc76)cc5c4cc3c2c1
emission maximum (in ClC(Cl)Cl): 371 nm

Structure (SMILES): N#Cc1cccc2[nH]ccc12
emission maximum (in C1CCOC1): 371 nm | emission maximum (in C1COCCO1): 369 nm | emission maximum (in CC#N): 380 nm | emission maximum (in CC(C)O): 385 nm | emission maximum (in CCO): 387 nm | emission maximum (in CO): 390 nm | emission maximum (in CS(C)=O): 392 nm | emission maximum (in O): 405 nm | emission maximum (in OCC(F)(F)F): 394 nm

Structure (SMILES): COc1cc(Br)cc2cc(-c3cc4cc(Br)cc(OC)c4oc3=O)oc12
emission maximum (in CC#N): 381 nm | emission maximum (in CCOC(C)=O): 434 nm | emission maximum (in CS(C)=O): 387 nm | emission maximum (in Cc1ccccc1): 430 nm | emission maximum (in O): 497 nm

Structure (SMILES): c1ccc2c(-c3c4ccccc4c(-c4ccc(-n5c6ccccc6c6ccccc65)cc4)c4ccccc34)cccc2c1
emission maximum (in ClCCl): 421 nm

Structure (SMILES): Cc1ccc(N2C(c3ccccc3NS(=O)(=O)c3ccc(C)cc3)=NC(c3ccccc3)C2c2ccccc2)cc1 (centres undefined)
emission maximum (in Cc1ccccc1): 375 nm

Structure (SMILES): CCN(CC)c1ccc(/C=N/c2cc3nc4ccccc4nc3cc2/N=C/c2ccc(N(CC)CC)cc2O)c(O)c1
emission maximum (in CC#N): 551 nm | emission maximum (in CN(C)C=O): 599 nm | emission maximum (in ClCCl): 568 nm

Structure (SMILES): Oc1ccc2ccccc2c1-c1nc2c(c3c1-c1ccccc1CC3)-c1ccccc1CC2
emission maximum (in ClCCl): 405 nm

Structure (SMILES): C1=[N+](c2ccccc2)[B-](c2ccccc2)(c2ccccc2)Oc2c1ccc1c3c(ccc21)C=[N+](c1ccccc1)[B-](c1ccccc1)(c1ccccc1)O3
emission maximum (in Cc1ccccc1): 602 nm | emission maximum (in ClCCl): 594 nm

Structure (SMILES): N#Cc1coc2ccccc2c1=O
emission maximum (in C1CCOC1): 373 nm | emission maximum (in C1COCCO1): 402 nm | emission maximum (in CC#N): 495 nm | emission maximum (in CC(C)O): 411 nm | emission maximum (in CCCCO): 500 nm | emission maximum (in CCCO): 440 nm | emission maximum (in CCOC(C)=O): 495 nm | emission maximum (in CN(C)C=O): 494 nm | emission maximum (in CO): 415 nm | emission maximum (in CS(C)=O): 490 nm | emission maximum (in ClC(Cl)Cl): 438 nm | emission maximum (in O): 396 nm

Structure (SMILES): COc1ccc(/C=C/c2cc(/C=C/c3ccc(OC)cc3)nc(/C=C/c3ccc4cc(OC)ccc4c3)n2)cc1
emission maximum (in C1CCOC1): 433 nm | emission maximum (in CC#N): 463 nm | emission maximum (in CC(C)=O): 445 nm | emission maximum (in CCCCCCC): 401 nm | emission maximum (in CS(C)=O): 471 nm | emission maximum (in Cc1ccccc1): 411 nm | emission maximum (in ClCCl): 443 nm

Now from value to molecule:

emission maximum (in ClCCl): 506 nm
Structure (SMILES): NC1=N/C(=N\c2ccccn2)c2cccc3cccc1c23

emission maximum (in C1CCCCC1): 567.5 nm | emission maximum (in CC#N): 573 nm | emission maximum (in CCO): 573 nm | emission maximum (in CCOC(C)=O): 569.5 nm | emission maximum (in CO): 572 nm | emission maximum (in OCC(F)(F)F): 567.5 nm
Structure (SMILES): Cc1ccc(C2=C3C=C(I)C=[N+]3[B-](F)(F)n3cc(I)cc32)cc1

emission maximum (in C1CCCCC1): 500 nm | emission maximum (in CO): 520 nm
Structure (SMILES): CN(C)c1ccc(/C=C(\C#N)c2nc3ccccc3s2)cc1

emission maximum (in ClC(Cl)Cl): 517.73 nm
Structure (SMILES): CC1=CC(C)=[N+]2C1=C(c1ccc(I)cc1)c1c(C)cc(C)n1[B-]2(F)F

emission maximum (in ClCCl): 528 nm
Structure (SMILES): CC(C)(C)c1ccc2c(c1)c1cc(C(C)(C)C)ccc1n2-c1ccc(C#Cc2ccc(C=O)cc2)cc1

emission maximum (in C1CCCCC1): 465 nm | emission maximum (in C1CCOC1): 537 nm | emission maximum (in CC#N): 572 nm | emission maximum (in CS(C)=O): 585 nm | emission maximum (in ClCCl): 548 nm
Structure (SMILES): CN(C)c1ccc(/C=C/c2ncnc3ccccc23)cc1

emission maximum (in CC#N): 569 nm
Structure (SMILES): CC1=CC(C)=[N+]2C1=C(c1ccccc1)c1c(C)cc(/C=C/c3ccccc3)n1[B-]2(F)F

emission maximum (in C1CCOC1): 527 nm
Structure (SMILES): N#Cc1c(N2CCCCC2)cc(-c2ccc3ccccc3c2)c2c1-c1ccccc1C2=O

emission maximum (in ClCCl): 599 nm
Structure (SMILES): CN(C)c1ccc(C2=CC3=C(c4ccc(C#N)cc4)[C@H]4c5ccccc5[C@]3(S2)c2ccccc24)cc1

emission maximum (in ClCCl): 429 nm
Structure (SMILES): c1ccc(-c2cc3cc4ccccc4cc3p2-c2ccccc2)cc1 (centres undefined)

emission maximum (in ClCCl): 477 nm
Structure (SMILES): COc1ccc(-c2cc3c(ccc4sc5ccc6sc(-c7ccc(C(C)=O)cc7)cc6c5c43)s2)cc1

emission maximum (in ClCCl): 499 nm
Structure (SMILES): O=c1c2cccc3cccc(c32)c2nc3ccccc3n12

emission maximum (in ClC(Cl)Cl): 437 nm
Structure (SMILES): O=C1CC(c2ccc(F)cc2)c2c(c3ccccc3c3nc4ccccc4nc23)O1 (centres undefined)

emission maximum (in ClC(Cl)Cl): 464.8 nm
Structure (SMILES): Cc1cccc(C2=Cc3c4ccccc4cc[n+]3[B-](F)(F)O2)c1

emission maximum (in ClCCl): 478 nm
Structure (SMILES): COC(=O)c1[nH]c(-c2ccccc2)c2nnc3ccsc3c12

emission maximum (in CO): 656 nm | emission maximum (in CS(C)=O): 664 nm | emission maximum (in O): 663 nm
Structure (SMILES): CCCN1/C(=C/C=C(/C=C/C2=[N+](CCC)c3ccccc3C2(C)C)c2ccc([N+](=O)[O-])cc2)C(C)(C)c2ccccc21

emission maximum (in CC#N): 421 nm | emission maximum (in CCCCCC): 336 nm
Structure (SMILES): COc1ccc(-n2c(C)ccc2C)cc1

emission maximum (in ClCCl): 585 nm
Structure (SMILES): CC(C)(C)OC(=O)N1CCN(c2ccc3c(-c4ccc(I)cc4)c4ccc(=[N+]5CCN(C(=O)OC(C)(C)C)CC5)cc-4oc3c2)CC1

emission maximum (in CO): 384 nm
Structure (SMILES): N[C@@H](Cn1nnc2cc(-c3ccc(-c4ccsc4)cc3)ccc21)C(=O)O

emission maximum (in C1CCCCC1): 382.09 nm | emission maximum (in C1CCOC1): 384.87 nm | emission maximum (in CC#N): 383.16 nm | emission maximum (in CCCCCC): 381.02 nm | emission maximum (in CCO): 382.73 nm | emission maximum (in CN(C)C=O): 386.79 nm | emission maximum (in CO): 381.87 nm | emission maximum (in ClC(Cl)Cl): 387.93 nm | emission maximum (in ClCCl): 386.36 nm
Structure (SMILES): CC(C)(C)c1ccc(-c2cc3c4c(c2)CCc2cc(-c5ccc(C(C)(C)C)cc5)cc(c2-4)CC3)cc1

emission maximum (in CC1CCCO1): 618 nm
Structure (SMILES): CC1=CC(C)=[N+]2C1=C(c1ccc(C)cc1)c1c(C)cc(/C=C/c3ccc4ccc5cccc6ccc3c4c56)n1[B-]2(F)F
